Experimental data: patent US12128257B2, “Extracts of Isochrysis sp” (SYMRISE AG, priority 2008, dated 2024)

Test system: hair follicles
Assay: Hair follicle growth (elongation) in organ culture of scalp hair follicles, image analysis
Format: cell-based, human
Settings: Table 7, day 10 of culture, pooled from two donors
Description: For each experiment and the control 9-12 follicles were used, plated at the density of 3 hair follicles/well in 24 well plates. Hair follicles were taken from the head of the scalp and transferred for cultivation in sterile 24 well plates using a modified Williams' Medium E. Cultivation took place for nine days, following 18 h of pre-incubation performed in order to select hair follicles suitable to be maintained in culture. Only those follicles showing a good vital stage and a growth of not less than 0.2 mm were used.
The growth performances observed in the treated hair follicles were compared to a control group, which was cultured in the same culture medium but free from extract supplement.
[…] In order to obtain these supplemented media, the required quantity of dir-MeOH extract was submitted to solvent evaporation and then redissolved again in DMSO. The final concentration of this DMSO-solved extract has been adjusted in order to supplement the experimental media with the desired extract quantity, obtaining at same time a final concentration in DMSO equal to 0.05%. The same concentration of DMSO has also been used in the medium for the culture of the control group.
The experiments were terminated after 10 days of cultivation (9 days of treatment). The growth of the hair follicles was studied by microphotography and subsequently determined by image analysis. All the hair follicles were photographed every two days.
1, were the hair follicle elongation is expressed as percentage ratio between the experimental groups and the untreated control: […]

CC/C=C\C/C=C\C/C=C\C/C=C\C/C=C\C/C=C\CCC(=O)O [DHA, docosahexaenoic acid]
Growth (%): Elongation in [%] of the control performance (0.003 μg/ml): 99.5%
Growth (%): Elongation in [%] of the control performance (0.03 μg/ml): 93.5%
Growth (%): Elongation in [%] of the control performance (0.3 μg/ml): 89.3%
